Measured values as given in BigSolDB 2.1.

CCC[C@H](N)C(=O)O
solubility (mole fraction) (in acetone, 298.15 K): 0.000515 | solubility (mole fraction) (in acetone, 303.15 K): 0.000664 | solubility (mole fraction) (in acetone, 308.15 K): 0.000828 | solubility (mole fraction) (in acetone, 313.15 K): 0.00106 | solubility (mole fraction) (in acetone, 318.15 K): 0.00135 | solubility (mole fraction) (in acetone, 323.15 K): 0.00161 | solubility (mole fraction) (in acetonitrile, 298.15 K): 5.93e-05 | solubility (mole fraction) (in acetonitrile, 303.15 K): 6.88e-05 | solubility (mole fraction) (in acetonitrile, 308.15 K): 7.54e-05 | solubility (mole fraction) (in acetonitrile, 313.15 K): 8.02e-05 | solubility (mole fraction) (in acetonitrile, 318.15 K): 8.53e-05 | solubility (mole fraction) (in acetonitrile, 323.15 K): 9.69e-05 | solubility (mole fraction) (in ethanol, 298.15 K): 0.000171 | solubility (mole fraction) (in ethanol, 303.15 K): 0.000186 | solubility (mole fraction) (in ethanol, 308.15 K): 0.000201 | solubility (mole fraction) (in ethanol, 313.15 K): 0.000227 | solubility (mole fraction) (in ethanol, 318.15 K): 0.000244 | solubility (mole fraction) (in ethanol, 323.15 K): 0.000283 | solubility (mole fraction) (in ethyl acetate, 298.15 K): 0.000253 | solubility (mole fraction) (in ethyl acetate, 303.15 K): 0.000301 | solubility (mole fraction) (in ethyl acetate, 308.15 K): 0.000349 | solubility (mole fraction) (in ethyl acetate, 313.15 K): 0.000449 | solubility (mole fraction) (in ethyl acetate, 318.15 K): 0.0005 | solubility (mole fraction) (in ethyl acetate, 323.15 K): 0.00056 | solubility (mole fraction) (in isopentanol, 298.15 K): 0.000726 | solubility (mole fraction) (in isopentanol, 303.15 K): 0.000875 | solubility (mole fraction) (in isopentanol, 308.15 K): 0.00103 | solubility (mole fraction) (in isopentanol, 313.15 K): 0.00122 | solubility (mole fraction) (in isopentanol, 318.15 K): 0.00151 | solubility (mole fraction) (in isopentanol, 323.15 K): 0.00183 | solubility (mole fraction) (in isopropanol, 298.15 K): 0.00119 | solubility (mole fraction) (in isopropanol, 303.15 K): 0.0015 | solubility (mole fraction) (in isopropanol, 308.15 K): 0.00173 | solubility (mole fraction) (in isopropanol, 313.15 K): 0.00192 | solubility (mole fraction) (in isopropanol, 318.15 K): 0.00215 | solubility (mole fraction) (in isopropanol, 323.15 K): 0.00249 | solubility (mole fraction) (in methanol, 298.15 K): 0.00104 | solubility (mole fraction) (in methanol, 303.15 K): 0.00109 | solubility (mole fraction) (in methanol, 308.15 K): 0.00113 | solubility (mole fraction) (in methanol, 313.15 K): 0.0012 | solubility (mole fraction) (in methanol, 318.15 K): 0.00126 | solubility (mole fraction) (in methanol, 323.15 K): 0.00129 | solubility (mole fraction) (in methyl acetate, 298.15 K): 7.37e-05 | solubility (mole fraction) (in methyl acetate, 303.15 K): 9.03e-05 | solubility (mole fraction) (in methyl acetate, 308.15 K): 0.00012 | solubility (mole fraction) (in methyl acetate, 313.15 K): 0.00015 | solubility (mole fraction) (in methyl acetate, 318.15 K): 0.000176 | solubility (mole fraction) (in methyl acetate, 323.15 K): 0.000216 | solubility (mole fraction) (in n-butanol, 298.15 K): 0.000962 | solubility (mole fraction) (in n-butanol, 303.15 K): 0.00122 | solubility (mole fraction) (in n-butanol, 308.15 K): 0.0014 | solubility (mole fraction) (in n-butanol, 313.15 K): 0.00157 | solubility (mole fraction) (in n-butanol, 318.15 K): 0.00175 | solubility (mole fraction) (in n-butanol, 323.15 K): 0.0019 | solubility (mole fraction) (in n-pentanol, 298.15 K): 0.000508 | solubility (mole fraction) (in n-pentanol, 303.15 K): 0.000567 | solubility (mole fraction) (in n-pentanol, 308.15 K): 0.000639 | solubility (mole fraction) (in n-pentanol, 313.15 K): 0.000744 | solubility (mole fraction) (in n-pentanol, 318.15 K): 0.000818 | solubility (mole fraction) (in n-pentanol, 323.15 K): 0.000872 | solubility (mole fraction) (in n-propanol, 298.15 K): 0.000859 | solubility (mole fraction) (in n-propanol, 303.15 K): 0.00115 | solubility (mole fraction) (in n-propanol, 308.15 K): 0.0015 | solubility (mole fraction) (in n-propanol, 313.15 K): 0.00189 | solubility (mole fraction) (in n-propanol, 318.15 K): 0.00231 | solubility (mole fraction) (in n-propanol, 323.15 K): 0.00278 | solubility (mole fraction) (in water, 298.15 K): 0.0135 | solubility (mole fraction) (in water, 303.15 K): 0.0136 | solubility (mole fraction) (in water, 308.15 K): 0.0137 | solubility (mole fraction) (in water, 313.15 K): 0.0138 | solubility (mole fraction) (in water, 318.15 K): 0.0139 | solubility (mole fraction) (in water, 323.15 K): 0.0141
